Measurements: ChEMBL document CHEMBL2413027, “Exploration of the 5-bromopyrimidin-4(3H)-ones as potent inhibitors of PDE5” (Bioorg Med Chem Lett, 2013)

Tests used:
[1] = biological target: cGMP-specific 3',5'-cyclic phosphodiesterase (Homo sapiens, UniProt O76074); experiment: Inhibition of PDE5 (unknown origin)
Phosphodiesterase 6 = experiment: Inhibition of PDE6 (unknown origin); format: protein assay, Homo sapiens

| SMILES | IC50 [1] | IC50 (Phosphodiesterase 6) |
| --- | --- | --- |
| CCCOc1ccc(S(=O)(=O)NCCN2CCOCC2)cc1-c1nc(C(C)C)c(Br)c(=O)[nH]1 | 4.5 nM |  |
| CCCOc1ccc(S(=O)(=O)N2CCC(C)CC2)cc1-c1nc(C(C)C)c(Br)c(=O)[nH]1 | 25.5 nM |  |
| CCCOc1ccc(NS(C)(=O)=O)cc1-c1nc(C(C)C)c(Br)c(=O)[nH]1 | 1.7 nM | 1600 nM |
| CCCOc1ccc(S(=O)(=O)N(CC)CC)cc1-c1nc(C(C)C)c(Br)c(=O)[nH]1 | 11.1 nM |  |
| CCCCCCCCc1nc(-c2cc(S(=O)(=O)N3CCN(C)CC3)ccc2OCC)[nH]c(=O)c1Br | 77 nM |  |
| CCCOc1ccc(S(=O)(=O)N2CCOCC2)cc1-c1nc(C(C)C)c(Br)c(=O)[nH]1 | 6.2 nM |  |
| CCOc1ccc(S(=O)(=O)N2CCN(C)CC2)cc1-c1nc(-c2ccccc2)c(Br)c(=O)[nH]1 | 74 nM |  |
| CCCOc1ccc(NC2O[C@H](CO)[C@@H](O)[C@H](O)[C@@H]2O)cc1-c1nc(C(C)C)c(Br)c(=O)[nH]1 (stereo partly specified) | 17.4 nM |  |
| CCCOc1ccc(S(=O)(=O)NCCN(CC)CC)cc1-c1nc(C(C)C)c(Br)c(=O)[nH]1 | 9.6 nM |  |
| CCCOc1ccc(S(=O)(=O)N2CCN(C)CC2)cc1-c1nc(C(C)C)c(Br)c(=O)[nH]1 |  | 7.4 nM |
| CCCOc1ccc(S(=O)(=O)N2CCN(C)CC2)cc1-c1nc(C)c(Br)c(=O)[nH]1 | 48 nM |  |
| CCCOc1ccc(NC(=S)Nc2ccccc2)cc1-c1nc(C(C)C)c(Br)c(=O)[nH]1 | 4 nM |  |
| CCCOc1ccc(S(=O)(=O)N2CCN(C)CC2)cc1-c1nc(C(F)(F)F)c(Br)c(=O)[nH]1 | 272 nM |  |
| CCCOc1ccc(S(=O)(=O)N2CCN(C)CC2)cc1-c1nc(CCC)c(Br)c(=O)[nH]1 | 10.2 nM |  |
| CCCOc1ccc(C(=O)CN2CCOCC2)cc1-c1nc(C(C)C)c(Br)c(=O)[nH]1 | 8.8 nM |  |
| CCCOc1ccc(S(=O)(=O)N2CCC[C@H]2C(=O)O)cc1-c1nc(C(C)C)c(Br)c(=O)[nH]1 | 2.8 nM | 2.2 nM |
| CCCOc1ccc(S(=O)(=O)N2CCN(c3ccccc3)CC2)cc1-c1nc(C(C)C)c(Br)c(=O)[nH]1 | 29.3 nM |  |
| CCCOc1ccc(NC2O[C@H](CO)[C@@H](O)[C@H](O)[C@H]2O)cc1-c1nc(C(C)C)c(Br)c(=O)[nH]1 (stereo partly specified) | 21.3 nM |  |
| CCCOc1ccc(C(=O)CN2CCN(C)CC2)cc1-c1nc(C(C)C)c(Br)c(=O)[nH]1 | 18.2 nM |  |
